Source: patent publication US10844077B2, “Thiazolyl-containing compounds for treating proliferative diseases” (Dana-Farber Cancer Institute, Inc., priority 2014, dated 2020)
Read-outs that look alike come from different tables or passages of the source.

How the values were obtained:
broad panel of kinases [1] = molecular target: broad panel of kinases (Homo sapiens, UniProt Q13882); format: binding; details: BRK; 1 μM
broad panel of kinases [2] = molecular target: broad panel of kinases (Homo sapiens, UniProt P22455); format: binding; details: FGFR4; 1 μM
broad panel of kinases [3] = molecular target: broad panel of kinases (Homo sapiens, UniProt P27037); format: binding; details: ACVR2A; 1 μM
broad panel of kinases [4] = molecular target: broad panel of kinases (Homo sapiens, UniProt O95819); format: binding; details: MAP4K4; 1 μM
broad panel of kinases [5] = molecular target: broad panel of kinases (Homo sapiens, UniProt Q9UK32); format: binding; details: 1 μM
broad panel of kinases [6] = molecular target: broad panel of kinases (Homo sapiens, UniProt Q02156); format: binding; details: PRKCE; 1 μM
broad panel of kinases [7] = molecular target: broad panel of kinases (Homo sapiens, UniProt Q13873); format: binding; details: BMPR2; 1 μM
broad panel of kinases [8] = molecular target: broad panel of kinases (Homo sapiens, UniProt P17612); format: binding; details: PKAC-alpha; 1 μM
broad panel of kinases [9] = molecular target: broad panel of kinases (Homo sapiens, UniProt P0C264); format: binding; details: SgK110; 1 μM
broad panel of kinases [10] = molecular target: broad panel of kinases (Homo sapiens, UniProt P16591); format: binding; details: FER; 1 μM
broad panel of kinases [11] = molecular target: broad panel of kinases (Homo sapiens, UniProt P10721, D816H); format: binding; details: KIT(D816H); 1 μM
broad panel of kinases [12] = molecular target: broad panel of kinases (Homo sapiens, UniProt Q13464); format: binding; details: ROCK1; 1 μM
broad panel of kinases [13] = molecular target: broad panel of kinases (Homo sapiens, UniProt Q02763); format: binding; details: TIE2; 1 μM
broad panel of kinases [14] = molecular target: broad panel of kinases (Homo sapiens, UniProt P00533, DEL752-759); format: binding; details: EGFR(S752-I759del); 1 μM
broad panel of kinases [15] = molecular target: broad panel of kinases (Homo sapiens, UniProt Q15835); format: binding; details: GRK1; 1 μM
broad panel of kinases [16] = molecular target: broad panel of kinases (Homo sapiens, UniProt P51956); format: binding; details: NEK3; 1 μM
broad panel of kinases [17] = molecular target: broad panel of kinases (Homo sapiens, UniProt P00533, L858R); format: binding; details: EGFR(L858R); 1 μM
broad panel of kinases [18] = molecular target: broad panel of kinases (Homo sapiens, UniProt P27448); format: binding; details: MARK3; 1 μM
broad panel of kinases [19] = molecular target: broad panel of kinases (Homo sapiens, UniProt Q13976); format: binding; details: PRKG1; 1 μM
broad panel of kinases [20] = molecular target: broad panel of kinases (Homo sapiens, UniProt Q05397); format: binding; details: FAK; 1 μM
broad panel of kinases [21] = molecular target: broad panel of kinases (Homo sapiens, UniProt Q6PHR2); format: binding; details: ULK3; 1 μM
broad panel of kinases [22] = molecular target: broad panel of kinases (Homo sapiens, UniProt P00519, M351T); format: binding; details: ABL1(M351T)-phosphorylated; 1 μM
broad panel of kinases [23] = molecular target: broad panel of kinases (Homo sapiens, UniProt P00519, Q252H); format: binding; details: 1 μM
broad panel of kinases [24] = molecular target: broad panel of kinases (Homo sapiens, UniProt Q9P289); format: binding; details: MST4; 1 μM
broad panel of kinases [25] = molecular target: broad panel of kinases (Homo sapiens, UniProt Q13153); format: binding; details: PAK1; 1 μM
broad panel of kinases [26] = molecular target: broad panel of kinases (Homo sapiens, UniProt P12931); format: binding; details: SRC; 1 μM
broad panel of kinases [27] = molecular target: broad panel of kinases (Homo sapiens, UniProt Q8TDR2); format: binding; details: STK35; 1 μM
broad panel of kinases [28] = molecular target: broad panel of kinases (Homo sapiens, UniProt Q15746); format: binding; details: MYLK; 1 μM
kinases in BCWM.1 cells [29] = molecular target: kinases in BCWM.1 cells (Homo sapiens, UniProt Q9UBE8); format: cell-based; details: NLK; Lys2; 1 μM, 90 min; GF
Description: (§1) The cells were harvested and lysed. […] Bound kinases were identified and quantitated by ACTIVX as described in Patricelli et al., Biochemistry, 2007, 46(2): 350-358. The compounds were tested in duplicates against duplicate or quadruplicate control samples.

kinases in BCWM.1 cells [30] = molecular target: kinases in BCWM.1 cells (Homo sapiens, UniProt Q96SB4); format: cell-based; details: SRPK1; Lys2; 1 μM, 90 min; GF
Description: as §1

kinases in BCWM.1 cells [31] = molecular target: kinases in BCWM.1 cells (Homo sapiens, UniProt O94921); format: cell-based
Description: as §1

kinases in BCWM.1 cells [32] = molecular target: kinases in BCWM.1 cells (Homo sapiens, UniProt Q96S38); format: cell-based; details: RSKL1; ATP; 1 μM, 90 min; GF
Description: as §1

kinases in BCWM.1 cells [33] = molecular target: kinases in BCWM.1 cells (Homo sapiens, UniProt Q9BYT3); format: cell-based; details: STK33; Lys2; 1 μM, 90 min; GF
Description: as §1

kinases in BCWM.1 cells [34] = molecular target: kinases in BCWM.1 cells (Homo sapiens, UniProt O95819); format: cell-based
Description: as §1

Chain of broad panel of kinases (Homo sapiens, UniProt Q13464) (Q13464 2-1354 limits assumed): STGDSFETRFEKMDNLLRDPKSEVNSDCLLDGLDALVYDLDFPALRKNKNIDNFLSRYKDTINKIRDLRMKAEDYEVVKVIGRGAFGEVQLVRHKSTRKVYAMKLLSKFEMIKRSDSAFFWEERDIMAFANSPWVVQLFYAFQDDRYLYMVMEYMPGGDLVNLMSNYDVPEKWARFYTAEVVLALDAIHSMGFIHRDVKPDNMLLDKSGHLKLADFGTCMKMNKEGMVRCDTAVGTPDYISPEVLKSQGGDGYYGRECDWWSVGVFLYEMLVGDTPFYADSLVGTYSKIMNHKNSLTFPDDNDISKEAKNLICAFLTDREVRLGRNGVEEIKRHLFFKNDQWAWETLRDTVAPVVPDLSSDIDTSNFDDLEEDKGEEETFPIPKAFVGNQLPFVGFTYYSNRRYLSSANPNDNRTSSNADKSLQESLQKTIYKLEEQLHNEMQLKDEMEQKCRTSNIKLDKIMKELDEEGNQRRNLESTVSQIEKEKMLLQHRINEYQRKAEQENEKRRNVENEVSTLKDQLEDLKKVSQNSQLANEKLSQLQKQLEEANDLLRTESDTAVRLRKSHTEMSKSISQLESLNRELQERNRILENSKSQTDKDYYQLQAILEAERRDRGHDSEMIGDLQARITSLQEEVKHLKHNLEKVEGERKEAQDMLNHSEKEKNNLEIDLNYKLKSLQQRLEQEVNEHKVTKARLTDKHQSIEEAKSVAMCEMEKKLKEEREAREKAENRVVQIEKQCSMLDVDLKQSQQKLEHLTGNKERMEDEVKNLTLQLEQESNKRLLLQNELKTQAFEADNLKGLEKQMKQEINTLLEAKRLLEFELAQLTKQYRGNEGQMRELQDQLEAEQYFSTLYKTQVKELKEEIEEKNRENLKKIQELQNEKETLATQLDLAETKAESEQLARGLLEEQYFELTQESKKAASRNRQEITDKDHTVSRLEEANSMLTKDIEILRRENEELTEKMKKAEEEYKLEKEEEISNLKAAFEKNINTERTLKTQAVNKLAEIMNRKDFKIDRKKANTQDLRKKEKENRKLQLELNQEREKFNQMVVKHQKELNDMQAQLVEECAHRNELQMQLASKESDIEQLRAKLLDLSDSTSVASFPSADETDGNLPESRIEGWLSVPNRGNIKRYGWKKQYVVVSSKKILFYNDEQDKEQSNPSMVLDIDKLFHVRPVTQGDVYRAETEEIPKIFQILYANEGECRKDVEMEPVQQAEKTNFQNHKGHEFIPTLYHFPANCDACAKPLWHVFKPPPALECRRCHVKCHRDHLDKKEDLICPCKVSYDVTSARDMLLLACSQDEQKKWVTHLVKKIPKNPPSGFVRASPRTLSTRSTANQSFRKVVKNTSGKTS
Chain of broad panel of kinases (Homo sapiens, UniProt P12931) (P12931 2-536 limits assumed): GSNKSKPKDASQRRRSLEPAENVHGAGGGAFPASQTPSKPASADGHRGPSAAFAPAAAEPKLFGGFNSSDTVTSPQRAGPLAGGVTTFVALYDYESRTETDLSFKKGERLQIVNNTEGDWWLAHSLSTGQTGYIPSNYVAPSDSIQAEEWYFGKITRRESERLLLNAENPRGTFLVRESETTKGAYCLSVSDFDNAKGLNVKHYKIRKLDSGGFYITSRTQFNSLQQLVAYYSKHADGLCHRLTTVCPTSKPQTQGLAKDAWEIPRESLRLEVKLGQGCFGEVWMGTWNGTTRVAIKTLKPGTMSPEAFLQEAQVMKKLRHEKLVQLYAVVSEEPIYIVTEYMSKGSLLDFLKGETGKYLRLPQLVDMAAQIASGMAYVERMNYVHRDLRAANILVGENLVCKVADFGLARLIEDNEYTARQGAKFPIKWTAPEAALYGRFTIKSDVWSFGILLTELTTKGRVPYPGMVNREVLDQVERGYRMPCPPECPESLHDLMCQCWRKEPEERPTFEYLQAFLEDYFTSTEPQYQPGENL
Chain of broad panel of kinases (Homo sapiens, UniProt P27037) (P27037 20-513 limits assumed): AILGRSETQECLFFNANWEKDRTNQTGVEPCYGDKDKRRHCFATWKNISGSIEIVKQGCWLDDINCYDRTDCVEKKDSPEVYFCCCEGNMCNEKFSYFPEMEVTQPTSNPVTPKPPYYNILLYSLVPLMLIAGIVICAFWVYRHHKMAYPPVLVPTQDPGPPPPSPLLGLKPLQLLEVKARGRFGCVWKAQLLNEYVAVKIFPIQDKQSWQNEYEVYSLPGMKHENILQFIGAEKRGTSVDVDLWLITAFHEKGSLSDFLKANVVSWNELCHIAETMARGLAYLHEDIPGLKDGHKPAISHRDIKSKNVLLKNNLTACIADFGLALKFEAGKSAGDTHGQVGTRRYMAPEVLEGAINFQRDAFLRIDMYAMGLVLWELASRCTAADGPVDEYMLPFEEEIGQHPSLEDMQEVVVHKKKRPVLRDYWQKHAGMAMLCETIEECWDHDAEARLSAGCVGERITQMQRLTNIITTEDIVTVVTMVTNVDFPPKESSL
Chain of broad panel of kinases (Homo sapiens, UniProt Q13153) (Q13153 2-545 limits assumed): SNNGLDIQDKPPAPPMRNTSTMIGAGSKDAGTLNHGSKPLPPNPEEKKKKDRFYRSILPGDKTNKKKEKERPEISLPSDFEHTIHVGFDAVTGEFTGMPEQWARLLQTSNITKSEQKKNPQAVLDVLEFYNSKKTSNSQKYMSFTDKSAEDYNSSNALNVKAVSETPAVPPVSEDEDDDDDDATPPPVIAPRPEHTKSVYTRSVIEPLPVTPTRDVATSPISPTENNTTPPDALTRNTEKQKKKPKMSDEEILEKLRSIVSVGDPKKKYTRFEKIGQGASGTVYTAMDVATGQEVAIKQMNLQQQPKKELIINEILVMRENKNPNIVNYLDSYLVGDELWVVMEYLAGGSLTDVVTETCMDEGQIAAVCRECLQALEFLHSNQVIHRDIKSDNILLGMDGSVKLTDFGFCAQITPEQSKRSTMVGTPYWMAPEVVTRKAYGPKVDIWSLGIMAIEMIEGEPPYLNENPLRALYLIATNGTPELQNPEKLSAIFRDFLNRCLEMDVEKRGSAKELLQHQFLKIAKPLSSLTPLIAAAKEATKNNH
Chain of broad panel of kinases (Homo sapiens, UniProt Q9P289) (Q9P289 2-416 limits assumed): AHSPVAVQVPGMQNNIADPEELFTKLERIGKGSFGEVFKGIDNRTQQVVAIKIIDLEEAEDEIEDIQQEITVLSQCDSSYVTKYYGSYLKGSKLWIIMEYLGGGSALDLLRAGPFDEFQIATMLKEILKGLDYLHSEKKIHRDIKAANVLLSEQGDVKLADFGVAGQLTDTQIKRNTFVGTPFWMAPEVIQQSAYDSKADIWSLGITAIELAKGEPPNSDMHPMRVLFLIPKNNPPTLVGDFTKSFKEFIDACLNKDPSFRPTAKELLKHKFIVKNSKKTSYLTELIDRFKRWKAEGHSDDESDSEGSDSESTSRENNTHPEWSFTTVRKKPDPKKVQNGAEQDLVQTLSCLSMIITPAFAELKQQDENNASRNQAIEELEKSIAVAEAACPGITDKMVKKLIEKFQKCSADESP
Chain of broad panel of kinases (Homo sapiens, UniProt P00533, DEL752-759) (P00533 with tags, fused parts or gaps DEL752-759 limits assumed): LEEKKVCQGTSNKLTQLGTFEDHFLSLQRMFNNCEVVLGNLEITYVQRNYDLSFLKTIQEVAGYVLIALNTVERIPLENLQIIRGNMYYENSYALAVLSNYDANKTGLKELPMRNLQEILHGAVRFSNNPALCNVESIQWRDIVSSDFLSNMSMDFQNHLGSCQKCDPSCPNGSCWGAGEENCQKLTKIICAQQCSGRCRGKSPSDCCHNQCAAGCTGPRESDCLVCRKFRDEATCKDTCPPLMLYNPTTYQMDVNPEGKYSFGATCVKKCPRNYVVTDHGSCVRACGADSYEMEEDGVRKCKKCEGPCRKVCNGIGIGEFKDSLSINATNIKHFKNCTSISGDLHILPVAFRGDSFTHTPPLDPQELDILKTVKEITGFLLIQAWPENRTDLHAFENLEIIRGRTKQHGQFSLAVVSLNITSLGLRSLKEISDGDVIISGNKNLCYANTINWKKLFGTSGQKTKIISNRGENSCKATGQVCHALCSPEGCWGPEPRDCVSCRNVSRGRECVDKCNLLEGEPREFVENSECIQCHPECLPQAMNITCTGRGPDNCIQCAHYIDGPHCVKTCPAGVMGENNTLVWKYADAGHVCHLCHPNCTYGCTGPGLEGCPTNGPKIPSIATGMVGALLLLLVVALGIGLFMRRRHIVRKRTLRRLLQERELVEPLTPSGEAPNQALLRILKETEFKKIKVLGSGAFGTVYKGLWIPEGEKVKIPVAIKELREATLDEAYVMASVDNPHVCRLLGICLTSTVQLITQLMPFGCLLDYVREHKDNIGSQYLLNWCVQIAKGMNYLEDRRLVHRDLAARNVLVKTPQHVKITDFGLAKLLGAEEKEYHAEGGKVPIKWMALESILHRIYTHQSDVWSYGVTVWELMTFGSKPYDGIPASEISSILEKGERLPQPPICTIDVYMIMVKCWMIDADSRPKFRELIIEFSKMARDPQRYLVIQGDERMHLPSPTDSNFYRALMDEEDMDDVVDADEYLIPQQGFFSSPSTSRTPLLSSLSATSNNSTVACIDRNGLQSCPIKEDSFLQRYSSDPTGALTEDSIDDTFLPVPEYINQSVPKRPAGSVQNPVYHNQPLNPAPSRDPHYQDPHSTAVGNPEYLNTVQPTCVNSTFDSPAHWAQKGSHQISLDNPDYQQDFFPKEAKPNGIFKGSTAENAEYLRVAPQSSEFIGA

SMILES | percent of control binding remaining (lower = stronger binding) (broad panel of kinases [1]) [%] | percent of control binding remaining (lower = stronger binding) (broad panel of kinases [2]) [%] | percent of control binding remaining (lower = stronger binding) (broad panel of kinases [3]) [%] | percent of control binding remaining (lower = stronger binding) (broad panel of kinases [4]) [%] | percent of control binding remaining (lower = stronger binding) (broad panel of kinases [5]; RSK4(Kin.Dom.1-N-terminal)) [%] | percent of control binding remaining (lower = stronger binding) (broad panel of kinases [5]; RSK4(Kin.Dom.2-C-terminal)) [%] | percent of control binding remaining (lower = stronger binding) (broad panel of kinases [6]) [%] | percent of control binding remaining (lower = stronger binding) (broad panel of kinases [7]) [%] | percent of control binding remaining (lower = stronger binding) (broad panel of kinases [8]) [%] | percent of control binding remaining (lower = stronger binding) (broad panel of kinases [9]) [%] | percent of control binding remaining (lower = stronger binding) (broad panel of kinases [10]) [%] | percent of control binding remaining (lower = stronger binding) (broad panel of kinases [11]) [%] | percent of control binding remaining (lower = stronger binding) (broad panel of kinases [12]) [%] | percent of control binding remaining (lower = stronger binding) (broad panel of kinases [14]) [%] | percent of control binding remaining (lower = stronger binding) (broad panel of kinases [15]) [%] | percent of control binding remaining (lower = stronger binding) (broad panel of kinases [16]) [%] | percent of control binding remaining (lower = stronger binding) (broad panel of kinases [17]) [%] | percent of control binding remaining (lower = stronger binding) (broad panel of kinases [18]) [%] | percent of control binding remaining (lower = stronger binding) (broad panel of kinases [19]) [%] | percent of control binding remaining (lower = stronger binding) (broad panel of kinases [20]) [%] | also measured
C=CC(=O)N1CC[C@H](Nc2nc(CN3CCOCC3)cc(Nc3ncc(C(=O)Nc4c(C)cccc4C)s3)n2)C1 [Example I-2] | 1.6 | 100 | 76 | 96 | 100 | 100 | 100 | 100 | 85 | 59 | 100 | 14 | 88 | 17 | 94 | 94 | 0 | 94 | 100 | 100 | percent of control binding remaining (lower = stronger binding) (broad panel of kinases [13]): 100%; percent of control binding remaining (lower = stronger binding) (broad panel of kinases [21]): 97%; percent of control binding remaining (lower = stronger binding) (broad panel of kinases [22]): 0.6%; percent of control binding remaining (lower = stronger binding) (broad panel of kinases [23]; ABL1(Q252H)-nonphosphorylated): 0.3%; percent of control binding remaining (lower = stronger binding) (broad panel of kinases [23]; ABL1(Q252H)-phosphorylated): 0.25%; percent of control binding remaining (lower = stronger binding) (broad panel of kinases [24]): 100%; percent of control binding remaining (lower = stronger binding) (broad panel of kinases [25]): 100%; percent of control binding remaining (lower = stronger binding) (broad panel of kinases [26]): 0%; percent of control binding remaining (lower = stronger binding) (broad panel of kinases [27]): 99%; percent of control binding remaining (lower = stronger binding) (broad panel of kinases [28]): 85%
C=CC(=O)N1CC[C@H](Nc2nccc(Nc3ncc(C(=O)Nc4c(C)cccc4C)s3)n2)C1 [Example I-3] | 9.3 | 100 | 82 | 96 | 100 | 97 | 100 | 100 | 85 | 95 | 99 | 23 | 89 | 4.6 | 97 | 95 | 0.75 | 57 | 100 | 100 | % change of MS signal compared to control sample (kinases in BCWM.1 cells [29]): 85.9%; % change of MS signal compared to control sample (kinases in BCWM.1 cells [30]): −16.8%; % change of MS signal compared to control sample (kinases in BCWM.1 cells [31]): −6.6%; % change of MS signal compared to control sample (kinases in BCWM.1 cells [32]): −25.8%; % change of MS signal compared to control sample (kinases in BCWM.1 cells [33]): 11.8%; % change of MS signal compared to control sample (kinases in BCWM.1 cells [34]; ZC1/HGK, Lys1, 1 μM, 90 min, GF): −16.8%; % change compared to control (broad panel of kinases [13]): 100%; percent of control binding remaining (lower = stronger binding) (broad panel of kinases [21]): 98%; % change compared to control (broad panel of kinases [22]): 0.7%; % change compared to control (broad panel of kinases [23]; ABL1(Q252H)-nonphosphorylated): 0.15%; % change compared to control (broad panel of kinases [23]; ABL1(Q252H)-phosphorylated): 0.3%; percent of control binding remaining (lower = stronger binding) (broad panel of kinases [24]): 100%; percent of control binding remaining (lower = stronger binding) (broad panel of kinases [25]): 95%; percent of control binding remaining (lower = stronger binding) (broad panel of kinases [26]): 0%; percent of control binding remaining (lower = stronger binding) (broad panel of kinases [27]): 100%; percent of control binding remaining (lower = stronger binding) (broad panel of kinases [28]): 93%
CCC(=O)N1CC[C@H](Nc2nccc(Nc3ncc(C(=O)Nc4c(C)cccc4C)s3)n2)C1 [Example I-9] | – | – | – | – | – | – | – | – | – | – | – | – | – | – | – | – | – | – | – | – | % change of MS signal compared to control sample (kinases in BCWM.1 cells [29]): 51.8%; % change of MS signal compared to control sample (kinases in BCWM.1 cells [30]): −0.4%; % change of MS signal compared to control sample (kinases in BCWM.1 cells [31]): −3.1%; % change of MS signal compared to control sample (kinases in BCWM.1 cells [32]): 1.8%; % change of MS signal compared to control sample (kinases in BCWM.1 cells [33]): 16.1%; % change of MS signal compared to control sample (kinases in BCWM.1 cells [34]): 15.3%
